From PubChem BioAssay AID743351 (Broad Institute, 2014) come the findings set out here.

The source made the active and inactive calls. How the calls were made is not given here. Where only a bound is given, the exact number is not on record here.

For this experiment, the system named is M. tuberculosis BioA-TetON overexpression strain, growth IC90. Nature of the experiment: PubChem AID 743351.
As for `COC(=O)CCCCCCC(=O)N1CC[C@@H]2[C@@H](CO)N(C)c3ccc(-c4cccc(F)c4)cc3[C@@H]21`, the IC90 is > 50 µM (inactive). The value for `CN1c2ccc(-c3cccc(F)c3)cc2[C@H]2[C@H](CCN2C(=O)CCCCCCN)[C@H]1CO` was > 50 µM (inactive); that for `CN1c2ccc(-c3cccc(F)c3)cc2[C@H]2[C@H](CCN2C(=O)c2ccc3c(c2)OCO3)[C@@H]1CO` was > 50 µM (inactive); that for `CNS(=O)(=O)c1ccc(N2CCN(C(=O)c3ccc4c(c3)OCO4)CC2)cc1` was > 50 µM (inactive). The value for `CN(C)C(=O)c1ccc(N2CCN(C(=O)c3ccc4c(c3)OCO4)CC2)cc1` was > 50 µM (inactive); that for `CC(=O)c1ccc(N2CCN(C(=O)c3ccccc3F)CC2)cc1` was > 50 µM (inactive); that for `CC(C)NC(=O)N1CC[C@@H]2[C@@H](CO)N(C)c3ccc(-c4ccc(F)cc4)cc3[C@@H]21` was > 50 µM (inactive). As for `CN1c2ccc(-c3ccc(F)cc3)cc2[C@H]2[C@H](CCN2C(=O)Nc2cc(F)ccc2F)[C@H]1CO`, the IC90 was > 50 µM (inactive).

For `CN1c2ccc(-c3cccc(F)c3)cc2[C@@H]2[C@@H](CCN2C(=O)c2ccc3c(c2)OCO3)[C@@H]1CO`, the IC90 was > 50 µM (inactive). Next, `CCC(=O)N1CC[C@@H]2[C@@H](CO)N(C)c3ccc(-c4ccc(F)cc4)cc3[C@@H]21`: > 50 µM (inactive). The value for `CCCCCCCC(=O)N1CC[C@@H]2[C@@H](CO)N(C)c3ccc(-c4cccc(F)c4)cc3[C@@H]21` was > 50 µM (inactive); that for `COc1cccc(NC(=O)N2CC[C@@H]3[C@@H](CO)N(C)c4ccc(-c5cccc(F)c5)cc4[C@@H]32)c1` was > 50 µM (inactive); that for `CN1c2ccc(-c3cccc(F)c3)cc2[C@H]2[C@H](CCN2C(=O)Cc2cccnc2)[C@H]1CO` was > 50 µM (inactive). Next, `COc1ccccc1C(=O)N1CCN(c2ccc(C(C)=O)cc2)CC1`: > 50 µM (inactive).

With `CN1c2ccc(-c3ccc(F)cc3)cc2[C@H]2[C@H](CCN2C(=O)Cc2ccccn2)[C@H]1CO`, the IC90 is > 50 µM (inactive). The value for `CC(=O)c1ccc(N2CCN(C(=O)c3ccc4c(c3)OCO4)[C@H](C)C2)cc1` was > 50 µM (inactive); that for `CC(=O)c1ccc(N2CCN(C(=O)c3ccccc3Cl)CC2)cc1` was > 50 µM (inactive); that for `CNC(=O)c1ccc(N2CCN(C(=O)c3ccc4c(c3)OCO4)CC2)cc1` was > 50 µM (inactive).

Consider `COc1ccccc1NC(=O)N1CC[C@@H]2[C@@H](CO)N(C)c3ccc(-c4cccc(F)c4)cc3[C@@H]21`, for which the IC90 is > 50 µM (inactive).

In the case of `COc1ccccc1NC(=O)N1CC[C@@H]2[C@@H](CO)N(C)c3ccc(-c4ccc(F)cc4)cc3[C@@H]21`, the IC90 is > 50 µM (inactive). Next, `CC(=O)c1ccc(N2CCN(C(=O)c3ccc4c(c3)OCO4)CC2)cc1`: > 50 µM (inactive); `CN1c2ccc(-c3cccc(F)c3)cc2[C@H]2[C@H](CCN2C(=O)Nc2ccccc2F)[C@H]1CO`: > 50 µM (inactive); `COc1ccc(NC(=O)N2CC[C@@H]3[C@@H](CO)N(C)c4ccc(-c5cccc(F)c5)cc4[C@@H]32)cc1`: > 50 µM (inactive). Take `CN1c2ccc(-c3cccc(F)c3)cc2[C@@H]2[C@@H](CCN2C(=O)c2ccc3c(c2)OCO3)[C@H]1CO`: the IC90 is > 50 µM (inactive). Next, `CN1c2ccc(-c3ccc(F)cc3)cc2[C@H]2[C@H](CCN2C(=O)Cc2cccnc2)[C@H]1CO`: > 50 µM (inactive); `CC(=O)c1ccc(NCCNC(=O)c2ccc3c(c2)OCO3)cc1`: > 50 µM (inactive). For the compound `CN1c2ccc(-c3cccc(F)c3)cc2[C@H]2[C@H](CCN2C(=O)Cc2ccccc2)[C@H]1CO`, the IC90 was > 50 µM (inactive). The value for `CN1c2ccc(-c3ccc(F)cc3)cc2[C@H]2[C@H](CCN2C(=O)Nc2ccc(F)cc2)[C@H]1CO` was > 50 µM (inactive).

In the case of `CN1c2ccc(-c3cccc(F)c3)cc2[C@H]2[C@H](CCN2C(=O)CCCCCCC(=O)O)[C@H]1CO`, the IC90 is > 50 µM (inactive). Next, `COc1ccc(NC(=O)N2CC[C@@H]3[C@@H](CO)N(C)c4ccc(-c5ccc(F)cc5)cc4[C@@H]32)cc1`: > 50 µM (inactive).

As for `COCC(=O)N1CC[C@@H]2[C@@H](CO)N(C)c3ccc(-c4cccc(F)c4)cc3[C@@H]21`, the IC90 was > 50 µM (inactive).

For `CC(C)NC(=O)N1CC[C@@H]2[C@@H](CO)N(C)c3ccc(-c4cccc(F)c4)cc3[C@@H]21`, the IC90 is > 50 µM (inactive).

On to `CCCNC(=O)N1CC[C@@H]2[C@@H](CO)N(C)c3ccc(-c4ccc(F)cc4)cc3[C@@H]21`, for which the IC90 is > 50 µM (inactive). Next, `CC(=O)c1ccc(N2CC3(CN(C(=O)c4ccc5c(c4)OCO5)C3)C2)cc1`: > 50 µM (inactive).

The term IC90 denotes the point of the concentration-response curve where the effect stands at 90%.
